# Source: PubChem BioAssay (NCI)
# “And” between values parts separate entries of the source, which are not always exact repeats. Equal values may be shown once.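 Step 1: Grow cells in 96-well plates. Step 2: Expose to compound for 48 hours at 5 concentrations. Step 3: Interpolate endpoints linearly; if unreached, use highest concentration. GI50: concentration for 50% inhibition of growth. TGI: total growth inhibition.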
# How the values were obtained:
# Experiment in all cases: NCI anticancer screen, dose series, 48 h
# [1] = system: EKVX NSCLC
# [2] = system: COLO 205 colon
# [3] = system: A498 renal
# [4] = system: SK-MEL-5 melanoma
# [5] = system: UACC-257 melanoma
# [6] = system: RXF 393 renal
# [7] = system: UO-31 renal
# [8] = system: HCT-116 colon
# [9] = system: IGROV1 ovarian
# [10] = system: ACHN renal
Structure (SMILES),TGI [1],TGI [2],TGI [3],TGI [4],TGI [5],TGI [6],TGI [7],TGI [8],TGI [9],TGI [10],GI50 [1],GI50 [2],GI50 [3],GI50 [4],GI50 [5],GI50 [6],GI50 [7],GI50 [8],GI50 [9],GI50 [10]
O=C1CCCCCCCCCCOC(=O)CCCCCCCCCCO1,> 100 µM,> 100 µM,> 100 µM,> 100 µM,> 100 µM,> 100 µM,> 100 µM,> 100 µM,> 100 µM,> 100 µM,,,,,,,,,,
COc1c(OC)c(OC)c(-c2cc(=O)c3c(OC)c(OC)c(OC)c(OC)c3o2)c(OC)c1OC,> 100 µM,> 100 µM,89.1 µM,74.9 µM,> 100 µM,81.2 µM,> 100 µM,44.9 µM,64.2 µM,> 100 µM,,,,,,,,,,
C=C(C)C1CCC2(C(=O)O)CCC3(C)C(CCC4C5(C)CCC(O)C(C)(C)C5CCC43C)C12 (stereo not given),44.9 µM,16.6 µM,20.7 µM,20.3 µM,21.8 µM,5.99 µM,24.5 µM,17.5 µM,28.7 µM,21.1 µM,,,,,,,,,,
C[C@H]1CCC2C(CN3CCCCC3)C(=O)OC2[C@]2(C)C(=O)CC(N3CCCCC3)C12O (stereo not given in full),16.1 µM,18.6 µM,12.8 µM,16.3 µM,13.1 µM,4.31 µM,27.9 µM,12 µM,84.1 µM,9.73 µM,,,,,,,,,,
Cc1cc(C)c(C2=NO[C@@H]3C(=O)N(c4ccc(Cc5ccc(N6C(=O)[C@H]7C(c8c(C)cc(C)cc8C)=NO[C@H]7C6=O)cc5)cc4)C(=O)[C@H]23)c(C)c1,> 100 µM,> 100 µM,> 100 µM,> 100 µM,> 100 µM,> 100 µM,> 100 µM,,> 100 µM,,,,,,,,,,,
COc1cc(/C=C2\CC3C4CCC5=CC(=O)CC[C@]5(C)C4CC[C@]3(C)C2=O)ccc1OCCN1CCCCC1 (stereo not given in full),21.8 µM,35.2 µM,12.1 µM,3.09 µM,18.4 µM,10.4 µM,> 100 µM,5.75 µM,> 100 µM,13.1 µM,6.3 µM,5.34 µM,1.9 µM,1.51 µM,4.8 µM,2.58 µM,7.87 µM,2.11 µM,11.2 µM,3.84 µM
O=C(O)C1C2CCC(O2)C1C(=O)NCc1cccnc1 (stereo not given),> 100 µM,> 100 µM,> 100 µM,> 100 µM,> 100 µM,> 100 µM,> 100 µM,> 100 µM,,> 100 µM,,,,,,,,,,
C=C(C)[C@@H]1CC[C@]2(C(=O)N3CCN(C)CC3)CC[C@]3(C)[C@H](CC[C@@H]4[C@@]5(C)CC[C@H](O)C(C)(C)[C@@H]5CC[C@]43C)[C@@H]12,4.12 µM,4.26 µM,2.9 µM,3.15 µM,3.57 µM,3.21 µM,3.24 µM,3.51 µM,3.71 µM,3.12 µM,1.92 µM,1.89 µM,1.5 µM,1.72 µM,1.81 µM,1.53 µM,1.67 µM,1.47 µM,1.93 µM,1.69 µM
O=C1NC(Cc2ccccc2)C(=O)N2CCCC12 (stereo not given),> 100 µM,> 100 µM,> 100 µM,> 100 µM,> 100 µM,> 100 µM,> 100 µM,> 100 µM,> 100 µM,> 100 µM,,,,,,,,,,
NCCCCCCCCCn1c2c(c3ccccc3c1=O)C(=O)c1ccccc1-2,17.3 µM,25 µM,16.4 µM,17.7 µM,22.7 µM,24.3 µM,18.6 µM,17.2 µM,> 50 µM,17 µM,9.16 µM,10 µM,7.74 µM,8.4 µM,10.1 µM,10.2 µM,7.68 µM,6.5 µM,10.2 µM,8.2 µM
O=C(Nc1nc(-c2ccccc2Cl)cs1)c1cc(-c2ccc(Cl)cc2)nc2ccc(Cl)cc12,> 100 µM,> 100 µM,> 100 µM,9.07 µM,> 100 µM,> 100 µM,52.6 µM,13.2 µM,> 100 µM,78.2 µM,7.18 µM,33.6 µM,27.4 µM,2.51 µM,14.9 µM,10.3 µM,2.46 µM,0.395 µM,2.99 µM,3.84 µM
O=[P+](O)c1cccnc1,> 100 µM,> 100 µM,> 100 µM,> 100 µM,> 100 µM,> 100 µM,> 100 µM,> 100 µM,> 100 µM,> 100 µM,,,,,,,,,,
COc1cccc(/C=C2\CCc3ccccc3C2=O)c1,29.3 µM,34.1 µM,25.1 µM,23 µM,28.9 µM,32.4 µM,24.3 µM,25.3 µM,35 µM,25.3 µM,13.9 µM,19.9 µM,12.1 µM,10.7 µM,13.4 µM,16.1 µM,10.9 µM,9.26 µM,12.5 µM,10.2 µM
CN(CCCCN)c1ccc2c(=O)[nH][nH]c(=O)c2c1,> 100 µM,> 100 µM,> 100 µM,,> 100 µM,> 100 µM,> 100 µM,> 100 µM,> 73.6 µM,> 100 µM,,,,,,,,,,
COc1ccc(/C=C/C(=O)c2ccccc2)cc1OC,28.7 µM and 35.6 µM,31.6 µM and 34.8 µM,38.6 µM and 32.2 µM,31.4 µM and 27.9 µM,31.7 µM and 31.4 µM,48.2 µM and 27.6 µM,27.2 µM and 27.3 µM,20.2 µM and 14.2 µM,49.7 µM and 43.7 µM,29.4 µM and 28.5 µM,17.7 µM,,,14.5 µM,,,,3.51 µM,15.4 µM,
O=C(O)c1c[nH]c2c(ccc3[nH]cc(C(=O)O)c(=O)c32)c1=O,> 100 µM,> 100 µM,> 100 µM,> 100 µM,> 100 µM,> 100 µM,> 100 µM,> 100 µM,> 100 µM,> 100 µM,,,,,,,,,,
NC(CSC1(c2ccc(Cl)cc2)c2ccccc2-c2ccccc21)C(=O)O (stereo not given),> 100 µM,28.9 µM,35 µM,30.6 µM,34.4 µM,> 100 µM,98.8 µM,34.6 µM,29.4 µM,50.2 µM,,,,,,,,,,
